Test results as given in ChEMBL document CHEMBL3044789, “Comparing weed and crop seedling response to pre-emergence pendimethalin application in Corchorus olitorius and Abelmoschus esculentus” (Crop Prot, 2006).

Legend:
Euphorbia heterophylla [1] = test: Herbicidal activity against Euphorbia heterophylla in Corchorus olitorius plots assessed as weed cover at 0.66 kg a.i/ha after 4 weeks (reference value: 20.1+/- 0.57 %); format: functional
Talinum fruticosum [2] = test: Herbicidal activity against Talinum fruticosum in Abelmoschus esculentus plots assessed as weed cover at 0.99 kg a.i/ha after 4 weeks (reference value: 22.6 +/- 0.49 %); format: functional
Euphorbia heterophylla [3] = test: Herbicidal activity against Euphorbia heterophylla in Abelmoschus esculentus plots assessed as weed cover at 0.99 kg a.i/ha after 4 weeks (reference value: 22.6 +/- 0.49 %); format: functional
Abelmoschus esculentus [4] = test: Phytotoxicity in Abelmoschus esculentus assessed as seedling emergence at 1.32 kg a.i/ha treated to soil after 7 weeks (reference value: 95 +/- 0.05 %); format: organism-based; settings: in vivo, other, 1176 h
Synedrella nodiflora [5] = test: Herbicidal activity against Synedrella nodiflora in Corchorus olitorius plots assessed as weed cover at 0.33 kg a.i/ha after 4 weeks (reference value: 20.1+/- 0.57 %); format: functional
Euphorbia heterophylla [6] = test: Herbicidal activity against Euphorbia heterophylla in Corchorus olitorius plots assessed as weed cover at 1.32 kg a.i/ha after 2 weeks (reference value: 81.7 +/- 0.43 %); format: functional
Abelmoschus esculentus [7] = test: Phytotoxicity in Abelmoschus esculentus assessed as seed germination at 0.66 kg a.i/ha applied as solution after 7 weeks (reference value: 85.7 +/- 0.36 %); format: organism-based; settings: in vivo, other, 1176 h
Synedrella nodiflora [8] = test: Herbicidal activity against Synedrella nodiflora in Corchorus olitorius plots assessed as weed cover at 0.66 kg a.i/ha after 7 weeks (reference value: 1.7 +/- 0.56 %); format: functional
Euphorbia heterophylla [9] = test: Herbicidal activity against Euphorbia heterophylla in Corchorus olitorius plots assessed as major weed growth at 0.33 kg a.i/ha after 2 weeks; format: functional
Euphorbia heterophylla [10] = test: Herbicidal activity against Euphorbia heterophylla in Corchorus olitorius plots assessed as weed recovery at 0.33 kg a.i/ha after 2 weeks (reference value: 78.3 +/- 0.74 %); format: functional
Synedrella nodiflora [11] = test: Herbicidal activity against Synedrella nodiflora in Abelmoschus esculentus plots assessed as weed cover at 1.32 kg a.i/ha after 7 weeks (reference value: 14.7 +/- 0.46 %); format: functional
Talinum fruticosum [12] = test: Herbicidal activity against Talinum fruticosum in Corchorus olitorius plots assessed as weed recovery at 0.99 kg a.i/ha after 2 weeks (reference value: 78.3 +/- 0.74 %); format: functional
Talinum fruticosum [13] = test: Herbicidal activity against Talinum fruticosum in Corchorus olitorius plots assessed as weed cover at 0.99 kg a.i/ha after 2 weeks (reference value: 81.7 +/- 0.43 %); format: functional
Euphorbia heterophylla [14] = test: Herbicidal activity against Euphorbia heterophylla in Abelmoschus esculentus plots assessed as weed cover at 1.32 kg a.i/ha after 2 weeks (reference value: 63.5 +/- 0.29 %); format: functional

Question: With `CCC(CC)Nc1c([N+](=O)[O-])cc(C)c(C)c1[N+](=O)[O-]` [PENDIMETHALIN] as the compound, how does the Activity (Euphorbia heterophylla [1]) read?
Answer: 63.3%

Question: And the Activity (Talinum fruticosum [2])?
Answer: 39.2%

Question: What about the Activity (Euphorbia heterophylla [3]) of the same compound?
Answer: 39.2%

Question: And the Activity (Abelmoschus esculentus [4])?
Answer: 85%

Question: And the Activity (Synedrella nodiflora [5])?
Answer: 73.3%

Question: What about the Activity (Euphorbia heterophylla [6]) of the same compound?
Answer: 41.7%

Question: What about the Activity (Abelmoschus esculentus [7]) of the same compound?
Answer: 46%

Question: And the Activity (Synedrella nodiflora [8])?
Answer: 100%

Question: What about the Activity (Euphorbia heterophylla [9]) of the same compound?
Answer: 31 /m2

Question: And the Activity (Euphorbia heterophylla [10])?
Answer: 31.7%

Question: And the Activity (Synedrella nodiflora [11])?
Answer: 82.4%

Question: What about the Activity (Talinum fruticosum [12]) of the same compound?
Answer: 21.7%

Question: What about the Activity (Talinum fruticosum [13]) of the same compound?
Answer: 51.7%

Question: What about the Activity (Euphorbia heterophylla [14]) of the same compound?
Answer: 45%
